According to patent US20240299469A1, “PRODUCTION OF INDOLE-DERIVED METABOLITES BY SHELF-STABLE COMMUNITIES OF SAFE BACTERIA” (Imvela Corp., priority 2023, published 2024):

Test: Storage stability in pet chew matrix
Format: physicochemical
Settings: water activity (aw) 0.4, 4 weeks of storage
Description: Stability of Bacillus Strains 1-3 was measured in a pet chew matrix with water activity (aw) level of 0.4, which is typically growth-prohibitive for other bacteria such as Lactobacillus. While Lactobacillus viability declined over 4 weeks of storage, Bacillus Strains 1-3 remained viable for 4 weeks, with loss of viability being less than <0.5 log 10 (FIGS. 3B and 3D).

Lactobacillus
viability over storage: declined
